The source of these data is patent US4536346A, “Aralkanamidophenyl compounds” (American Cyanamid Company, priority 1983, dated 1985).

In the test the target is T1, fatty acyl CoA: cholesterol acyl transferase (ACAT) (Rattus norvegicus, UniProt O70536).
T1 construct: The supernatant, containing the microsomal fraction, served as the source of the cholesterol-esterifying enzyme; from tissue; host or cells: rat adrenals (1,000 x g supernatant containing the microsomal fraction)
T1 sequence (O70536 1-545): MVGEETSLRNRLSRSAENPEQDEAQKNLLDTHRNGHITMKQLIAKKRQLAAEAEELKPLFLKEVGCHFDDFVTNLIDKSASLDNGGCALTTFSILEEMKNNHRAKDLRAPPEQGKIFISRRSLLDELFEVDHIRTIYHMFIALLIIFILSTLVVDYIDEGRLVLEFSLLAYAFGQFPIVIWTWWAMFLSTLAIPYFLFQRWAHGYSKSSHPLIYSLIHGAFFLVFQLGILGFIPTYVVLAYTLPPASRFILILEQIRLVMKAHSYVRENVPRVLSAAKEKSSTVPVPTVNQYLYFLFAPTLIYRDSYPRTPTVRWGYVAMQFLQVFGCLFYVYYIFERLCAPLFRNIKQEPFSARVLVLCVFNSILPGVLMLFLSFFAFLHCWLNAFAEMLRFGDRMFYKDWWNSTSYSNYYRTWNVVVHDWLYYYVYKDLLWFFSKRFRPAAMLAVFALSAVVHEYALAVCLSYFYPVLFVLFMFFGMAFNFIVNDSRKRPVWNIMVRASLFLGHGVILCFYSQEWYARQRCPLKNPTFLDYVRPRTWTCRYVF
Kind of test: Inhibition of enzymatic esterification of cholesterol (ACAT) in rat adrenal supernatant containing the microsomal fraction. In kind it is biochemical. The note with it: final concentration of test compound 5.2 μg./ml., percent inhibition of the ACAT enzyme compared to control values. As for the experimental part:
The compounds of the present invention were tested for their ability to inhibit the enzymatic esterification of cholesterol according to the following procedure:
Rat adrenals were homogenized in 0.2M monobasic potassium phosphate buffer, pH 7.4, and centrifuged at 1,000 times gravity for 15 minutes at 5° C. The supernatant, containing the microsomal fraction, served as the source of the cholesterol-esterifying enzyme, fatty acyl CoA: cholesterol acyl transferase (ACAT). A mixture comprising 50 parts of adrenal supernatant, 10 parts of albumin (BSA) (50 mg./ml.), […], 3 parts of test compound, and 500 parts of buffer was pre-incubated at 37° C. for 10 minutes. After treatment with 20 parts of oleoyl CoA (^14 C-0.4 μCi), the mixture was incubated at 37° C. for 10 minutes. A control mixture, omitting the test compound, was prepared and treated in the same manner. The lipids from the incubation mixture were extracted into an organic solvent and separated by thin-layer chromatography. The cholesterol ester fraction was counted in a scintillation counter. This procedure is a modification of that described by Hashimoto, et al., Life Scie., 12 (Part II), 1-12 (1973).
The results of this test on representative compounds of this invention appear in Table I. The final concentration of the test compound was 5.2 μg./ml., and the effectiveness of the compound is expressed as percent inhibition of the ACAT enzyme compared to control values.

Structures are written as SMILES.

A word on the inhibition: it is the share of the control response that was lost under treatment. Higher therefore signals strong suppression.

As to `COC(=O)c1ccccc1NC(=O)C=C(c1ccc(Cl)cc1)c1ccc(Cl)cc1` [2-[3,3-Bis(p-chlorophenyl)acrylamido]benzoic acid, methyl ester], the inhibition at 5.2 µg/mL is 71%.
Then `O=C(C=C(c1ccc(Cl)cc1)c1ccc(Cl)cc1)Nc1ccccc1C(=O)O` [2-[3,3-Bis(p-chlorophenyl)acrylamido]benzoic acid], with 32%; and `O=C(C=C(c1ccc(Cl)cc1)c1ccc(Cl)cc1)Nc1cccc(C(=O)O)c1` [3 - [3,3-Bis(p-chlorophenyl)acrylamido]benzoic acid], with 98%.
In turn, `N#Cc1ccc(NC(=O)C=C(c2ccc(Cl)cc2)c2ccc(Cl)cc2)cc1` [3,3-Bis(p-chlorophenyl-4'-cyanoacrylanilide] yielded an inhibition at 5.2 µg/mL of 96%.
Then `COC(=O)c1cccc(NC(=O)C=C(c2ccc(Cl)cc2)c2ccc(Cl)cc2)c1` [3-[3,3-Bis(p-chlorophenyl)acrylamido]benzoic acid, methyl ester], with 94%; and `CC(=O)c1ccc(NC(=O)C=C(c2ccc(Cl)cc2)c2ccc(Cl)cc2)cc1` [4'-Acetyl-3,3-bis(p-chlorophenyl)acrylanilide], with 86%.
`COc1ccc(C(CC(=O)Nc2ccc(C(C)=O)cc2)c2ccc(OC)cc2)cc1` [4'-[3,3-Bis(4-methoxyphenyl)propionamido]acetophenone]: at 5.2 µg/mL the inhibition was 82%.
The same measure for `COc1ccc(C(CC(=O)Nc2ccc(C(=O)O)cc2)c2ccc(OC)cc2)cc1` [4'-[3,3-Bis(4-methoxyphenyl)propionamido]benzoic acid]: 45%.
Then `O=C(C=C(c1ccccc1)c1ccccc1)Nc1ccc(C(=O)O)cc1` [4-(3,3-Diphenylacrylamido)benzoic acid], with 66%; and `CCOC(=O)c1ccc(NC(=O)C=C(C)c2ccc(Cl)c(Cl)c2)cc1` [4-(3,4-Dichlorophenyl-β-methylacrylamido)benzoic acid, ethyl ester], with 74%; and `CCOC(=O)c1ccc(NC(=O)C=C(c2ccccc2)c2ccc(Cl)c([N+](=O)[O-])c2)cc1` [4-(4-Chloro-3-nitro-β-phenylcinnamamido)benzoic acid, ethyl ester], with 94%.
The same measure for `CCOC(=O)c1ccc(NC(=O)C=C(C)c2ccc(Cl)cc2)cc1` [4-(p-Chloro-β-methylcinnamamido)benzoic acid, ethyl ester]: 74%; for `CC(=CC(=O)Nc1ccc(C(=O)O)cc1)c1ccc(Cl)cc1` [4-(p-Chloro-β-methylcinnamamido)benzoic acid]: 71%; for `CCOC(=O)c1ccc(NC(=O)C=C(c2ccccc2)c2ccc(Cl)cc2)cc1` [4-(p-Chloro-β-phenylcinnamamido)benzoic acid, ethyl ester]: 92%.
For `O=C(C=C(c1ccccc1)c1ccc(Cl)cc1)Nc1ccc(C(=O)O)cc1` [4-(p-Chloro-β-phenylcinnamamido)benzoic acid], testing at 5.2 µg/mL gave an inhibition of 77%.
The compound `CCOC(=O)c1ccc(NC(=O)C=Cc2ccc(Cl)cc2)cc1` [4-(p-Chlorocinnamamido)benzoic acid, ethyl ester] had an inhibition at 5.2 µg/mL of 51%.
Regarding `CCOC(=O)c1ccc(NC(=O)CCc2ccc(Cl)cc2)cc1` [4-(p-Chlorohydrocinnamamido)benzoic acid, ethyl ester], the inhibition at 5.2 µg/mL amounted to 30%.
The same measure for `O=C(CCc1ccc(Cl)cc1)Nc1ccc(C(=O)O)cc1` [4-(p-Chlorohydrocinnamamido)benzoic acid]: 33%.
The same measure for `O=C(CCCCCc1ccc(Cl)cc1)Nc1ccc(C(=O)O)cc1` [4-(p-Chlorophenyl)hexanamidobenzoic acid, 4-[6-(p-Chlorophenyl)hexanamido]benzoic acid]: 18%; for `CCOC(=O)c1ccc(NC(=O)C=Cc2ccc(OC)cc2)cc1` [4-(p-Methoxycinnamamido)benzoic acid, ethyl ester]: 53%.
